Measurements as given in article PMC3094704, “S-Petasin, the Main Sesquiterpene of Petasites formosanus, Inhibits Phosphodiesterase Activity and Suppresses Ovalbumin-Induced Airway Hyperresponsiveness” (Evidence-based Complementary and Alternative Medicine : eCAM, 2011).

What was measured:
guinea pig trachea = conditions: precontracted by histamine, carbachol (CCh), KCl or leukotriene (LT) D4; read-out: IC50 in relaxing guinea pig trachea; cited from earlier work
[1] = tested on: cAMP-phosphodiesterase (PDE); set-up: method as in PMID 11345692; conditions: cited from earlier work
[2] = tested on: OVA-sensitized and challenged BALB/c mice; test: Airway hyperresponsiveness in vivo (Penh, whole-body plethysmography); set-up: species or system mouse
Method: Ten female BABL/c mice in each group were sensitized by an intraperitoneal (i.p.) injection of 20 μg of OVA emulsified in 2.25 mg aluminum hydroxide gel in a total volume of 100 μL on days 0 and 14. The mice were challenged via the airway by 1% OVA in saline for 30 min on Days 28, 29 and 30 by ultrasonic nebulization. Six weeks after the last of three primary OVA challenges, the mice were exposed to 1% OVA for 30 min by nebulization as a secondary challenge. AHR was assessed on Day 74 (48 h after 1% OVA provocation) in each group. […] For comparison, sham-treated mice were sensitized but challenged with saline instead of 1% OVA (non-challenged). The vehicle, a mixture of alcohol : DMSO : 30% HPβCD : saline (0.5 : 0.5 : 1 : 8 , v/v), or S-petasin was injected at a volume of 0.01 mL/g of body weight. AHR was measured in unrestrained animals by barometric plethysmography using a whole-body plethysmograph (WBP) and analyzed using software of Life Science Suite P3 Analysis Modules (Gould, LDS Test and Measurement LLC, Valley View, OH, USA). The mice were placed into the main chamber of the WBP, and the baseline enhanced pause (P enh) value was determined. Then the mice were nebulized first with phosphate-buffered saline (PBS), and subsequently with increasing doses (6.25–50 mg/mL) of MCh for 3 min for each nebulization, followed by readings of breathing parameters for 3 min after each nebulization with determination of P enh values. Twenty-four hours after the P enh determination, these mice were anesthetized with pentobarbital (50 mg/kg, i.p.), and lavaged via a tracheal tube with PBS (1 × 1.0 mL, 37°C). After lavage, blood was collected from the jugular vein and allowed to sit so that it would coagulate. The collected bronchoalveolar lavage fluid (BALF) and coagulated blood were, respectively, centrifuged at 630 g for 7 min and at 3700 g for 10 min at 4°C, respectively. After centrifugation, the supernatants of BALF and serum were stored at −20°C until the determinations of cytokines, including interleukin (IL)-2, IL-4, IL-5, tumor necrosis factor (TNF)-α and interferon (IFN)-γ by flow cytometric methods using mouse Th1/Th2 cytokine CBA kits, of total immunoglobulin E (IgE), and of total IgG2a using enzyme-linked immunosorbent assay (ELISA) kits (Pharmingen, San Diego, CA, USA) according to the respective recommendations of the manufacturer. OVA-specific IgE was measured as described previously with some modifications. Wells were coated with 100 μL of OVA (20 μg/mL) instead of the capture antibody. Levels are expressed in arbitrary units, where one arbitrary unit equals the optical density of the sample divided by the optical density of unchallenged mouse serum or BALF (standard). The pellet from BALF was re-suspended in ACK lysing buffer (1.658 g NH4Cl, 0.2 g KHCO3 and 1.44 mg EDTA in 200 mL of water) to lyse the residual erythrocytes in each sample. The number of inflammatory cells was counted using a hemocytometer (Hausser Scientific, Horsham, PA, USA). Cytospun slides were stained and differentiated in a blinded fashion by counting at least 100 cells under light microscopy.

female BALB/c mice = test: Xylazine/ketamine-induced anesthesia; assay type: in vivo, mouse; conditions: 10–100 μmol/kg s.c., 1 h before anesthesia
Method: According to the method described by Robichaud et al. and modified by us, S-petasin (10–100 μmol/kg, s.c.) or rolipram (0.01–1 μmol/kg, s.c.), a reference drug, was injected into 8–12 week-old female BALB/c mice 1 h or 15 min, respectively, prior to an i.p. injection of xylazine (10 mg/kg)/ketamine (70 mg/kg). The vehicle (control) for S-petasin or for rolipram was a mixture of alcohol : DMSO : 30% HPβCD : saline (0.5 : 0.5 : 1 : 8 , v/v), or alcohol : DMSO : PEG 400 : saline (0.5 : 0.5 : 1 : 8, v/v), respectively. After loss of the righting reflex (i.e., when a mouse remained on its back and no longer spontaneously righted itself to a prone position), the duration of anesthesia was measured until its return as an endpoint.

[3] = Solubility limit of S-petasin in the binding assay; assay type: physicochemical; conditions: reaction buffer of binding assay, aqueous buffer; read-out: Highest attainable concentration owing to solubility

Q: With `C=C(C)[C@@H]1C[C@@]2(C)C(=CC1=O)CC[C@@H](OC(=O)/C=C\SC)[C@@H]2C` [S-Petasin] as the compound, how does the IC50 (guinea pig trachea) read?
A: < 10 µM

Q: And the “Inhibition of cAMP-phosphodiesterase (PDE) activity” value [1]?
A: inhibited

Q: And the “Penh value at the baseline” value ([2]; 10 μmol/kg s.c.)?
A: 3.19 ± 0.47

Q: And the “Penh value of PBS nebulization” value ([2]; 10 μmol/kg s.c.)?
A: 2.99 ± 0.22

Q: And the “Penh value at the baseline” value ([2]; 30 μmol/kg s.c.)?
A: 3.13 ± 0.32

Q: And the “Penh value of PBS nebulization” value ([2]; 30 μmol/kg s.c.)?
A: 3.02 ± 0.23

Q: And the “Enhancement of the Penh value induced by MCh” value ([2]; 10–30 μmol/kg s.c., MCh at 50 mg/mL)?
A: dose-dependently and significantly attenuated

Q: And the “Duration of xylazine/ketamine-induced anesthesia” value (female BALB/c mice)?
A: did not affect

Q: And the solubility [3]?
A: ≤ 300 µM
